Broadly, the melting point is the temperature, or range, at which the solid turns liquid. A word on the Ki: it is the equilibrium dissociation constant of an inhibitor or competing ligand from its target.

Data on 39 molecules can be found in US7214703B2, “Pyrrolidinohydrochinazolines” (Boehringer Ingelheim International GmbH, priority 2003, dated 2007).

Where a name gives a salt, the structure may show the parent alone.

Data set [1] has as its target T1, human chemokine receptor CCR3 (Homo sapiens, UniProt P51677).
T1 construct: expressed in transfected cells; host or cells: K562 cells (membrane preparation)
T1 sequence (P51677 1-355): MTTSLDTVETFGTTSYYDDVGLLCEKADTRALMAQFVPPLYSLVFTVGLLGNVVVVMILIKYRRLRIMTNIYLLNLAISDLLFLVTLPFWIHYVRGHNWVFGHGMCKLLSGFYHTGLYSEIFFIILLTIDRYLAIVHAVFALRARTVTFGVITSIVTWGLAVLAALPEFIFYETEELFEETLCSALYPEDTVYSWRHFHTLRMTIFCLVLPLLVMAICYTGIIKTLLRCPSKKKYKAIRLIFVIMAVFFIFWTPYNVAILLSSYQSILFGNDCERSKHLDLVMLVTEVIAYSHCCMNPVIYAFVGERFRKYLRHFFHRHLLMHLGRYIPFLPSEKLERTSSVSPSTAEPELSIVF
The experiment in a line: CCR3 receptor binding assay (SPA, 125I-eotaxin-1, membranes of hCCR3 transfected K562 cells). Conditions: CCR3-Receptor Binding Protocol, radioligand 125I-eotaxin-1; read-out: Affinity (Ki-value). An excerpt:
Cell lines for expressing the receptor of interest include those naturally expressing the chemokine receptor, such as EOL-3 or THP-1, those induced to express the chemokine receptor by the addition of chemical or protein agents, such as HL-60 or AML14.3D10 cells treated with, for example, butyric acid with interleukin-5 present, or a cell engineered to express a recombinant chemokine receptor, such as CHO or HEK-293. Finally, blood or tissue cells, for example human peripheral blood eosinophils, isolated using methods as described by Hansel et al., J. Immunol. Methods, 145, 105–110 (1991), can be utilized in such assays. In particular, the compound of the present invention have activity in binding to the CCR-3 receptor in the aforementioned assays. […] Such a result is indicative of the intrinsic activity of the compounds as modulators of chemokine receptor activity. A general binding protocol is described below.
CCR3-Receptor Binding Protocol
The CCR3 receptor binding test is based on a K562 cell line (leukemia myelogenic blast cells ) transfected with the human chemokine receptor CCR3 (hCCR3-C1). The cell membranes were prepared by disrupting the hCCR3 transfected K562 cells by nitrogen […] and centrifugation at 40000 g, 4° C. for 1 h. The membranes were re-suspended in the SPA incubation buffer (see below) without bovine serum albumin for storage in aliquots at −80° C.
The CCR3 receptor binding assay with the radioligand ^125Jodine-eotaxin-1 was performed in a Scintillation Proximity Assay (SPA) design. Cell membranes of hCCR3 C1 cells were diluted in suitable concentrations (0.5–5 ug protein/well ) in 96 well microtiter plates (1450–401, Wallac).
The test incubation mixture comprising 60 μl of the membrane suspension, 80 μl of the Wheat Germ Agglutinin coated PVT beads (organic scintillator, Amersham Pharmacia biotech) in a concentration of 0.4 mg and 40 μl of radiolabelled ^125J rhEotaxin (Amersham, IM290) were incubated with 20 μl of the test compound (dissolved in DMSO dilutions ) for 2 hours. The SPA incubation buffer contained 25 mM HEPES, 25 mM MgCl2 6×H2O, 1 mM CaCl2 2×H2O and 0.1% bovine serum albumin. Included were controls for specific binding (no displacer added) and non-specific binding by adding unlabelled rhEotaxin (R&D Systems) or a test compound. Bound radioactivity was determined by scintillation counter (Micro Beta “Trilux”, Wallac). Determination of affinity of test compounds (dissociation constant Ki) was calculated by iterative fitting of experimental data using the law of mass action based program “easy sys” (Schittkowski, Num Math 68, 129–142 (1994)).

Molecule `FC(F)(F)Oc1ccccc1C=C1CCN2Cc3ccccc3N=C12` (as salt: HCl) [Example 122] yielded a melting point of 225 °C.
Regarding `N=c1c2ccccc2nc2n1CC/C2=C\c1ccccc1I` [Example 203], the inhibitory constant (Ki) in data set [1] is 1 to 100 nM.
The same measure, in the same setting: under `CCc1ccccc1C=C1CCN2Cc3ccccc3N=C12` [Example 110] stands 1000 to 10000 nM.
Take `COc1ccc(/C=C2\CCN3Cc4ccccc4N=C23)cc1C` [Example 119]: the melting point lay in the range of 174 to 175 °C. The Ki in data set [1] lay within 1000 to 10000 nM.
As to `Clc1ccc(C=C2CCN3Cc4ccccc4N=C23)c(Cl)c1` [Example 120], the melting point was in the range of 187 to 188 °C. For the same molecule, the inhibitory constant (Ki) in data set [1] was in the range of 1000 to 10000 nM.
The like results for `CN(C)c1ccc(/C=C2\CCN3Cc4ccccc4N=C23)cc1` [Example 111] were, in that order, 205 °C and 1000 to 10000 nM.
The like results for `Clc1cccc(Cl)c1C=C1CCN2Cc3ccccc3N=C12` [Example 105] were, in that order, 198 to 199 °C and 1000 to 10000 nM.
The like results for `Clc1ccccc1C=C1CCN2Cc3ccccc3N=C12` [Example 103] were, in that order, 190 to 191 °C and 1 to 100 nM.
For `N=c1c2ccccc2nc2n1CC/C2=C\c1ccccc1Cl` [Example 202], the melting point fell in the range of 202 to 203 °C. Further, the Ki in data set [1] lay within 1 to 100 nM.
The corresponding values for `COc1cc2nc3n(c(=N)c2cc1OC)CC/C3=C\c1ccccc1Br` [Example 206] are 192 to 194 °C and 100 to 1000 nM.
The like results for `Fc1ccc(C=C2CCN3Cc4ccccc4N=C23)c(Cl)c1` [Example 118] were, in that order, 202 to 203 °C and 100 to 1000 nM.
Consider `CCc1ccccc1C=C1CCN2Cc3ccccc3N=C12` (as salt: HCl) [Example 110], for which the melting point was found to be 257 °C.
For the molecule `C(=C1/CCN2Cc3ccccc3N=C12)/c1ccsc1` [Example 116], the melting point was in the range of 208 to 209 °C. Also, the inhibition constant (Ki) in data set [1] was 1000 to 10000 nM.
On to `Brc1ccccc1C=C1CCN2Cc3ccccc3N=C12` [Example 101, 3-(2-Bromobenzylidene)-1,2,3,9-tetrahydro-pyrrolo[2,1-b]quinazoline], for which the inhibition constant Ki in data set [1] is 1 to 100 nM.
As for `C(=C1/CCN2Cc3ccccc3N=C12)/c1ccccc1-c1ccccc1` (as salt: HCl) [Example 117], the melting point lay within 255 to 256 °C.
Same read-out and setting: under `CN(C)c1ccc(/C=C2\CCN3Cc4ccccc4N=C23)c(Cl)c1` (as salt: HCl) [Example 107] stands over 300 °C.
On to `Cc1sc2nc3n(c(=N)c2c1C)CC/C3=C\c1ccccc1Br` [Example 303], for which the melting point is 180 °C. Besides, the Ki in data set [1] was 100 to 1000 nM.
The like results for `Brc1cccc2cccc(C=C3CCN4Cc5ccccc5N=C34)c12` [Example 124] were, in that order, 252 to 255 °C and 1000 to 10000 nM.
Turning to `FC(F)(F)c1ccccc1/C=C1\CCN2Cc3ccccc3N=C12` (as salt: HCl) [Example 108], the melting point was 109 to 110 °C.
In turn, `Cc1oc2nc3n(c(=N)c2c1C)CC/C3=C\c1ccccc1Br` [Example 306] gave a melting point of over 290 °C. In data set [1], the Ki fell in the range of 100 to 1000 nM.
With `CCc1ccccc1/C=C1\CCn2c1nc1ccccc1c2=N` [Example 204], the inhibition constant Ki in data set [1] is 100 to 1000 nM.
The same measure, in the same setting: the figure for `C(=C1/CCN2Cc3ccccc3N=C12)/c1ccccc1-c1ccccc1` [Example 117] is 1000 to 10000 nM.
For `Clc1ccccc1/C=C1\CCN2Cc3cc(Br)cc(Br)c3N=C12` [Example 102], the melting point was in the range of 214 to 219 °C. For the same molecule, the Ki in data set [1] is 1000 to 10000 nM.
Turning to `FC(F)(F)c1ccccc1/C=C1\CCN2Cc3ccccc3N=C12` [Example 108], the Ki in data set [1] lay within 1000 to 10000 nM.
On the same count and under the same terms, the figure for `Fc1ccccc1/C=C1\CCN2Cc3ccccc3N=C12` [Example 106] is 1000 to 10000 nM.
In turn, `COc1ccc(C=C2CCn3c2nc2ccccc2c3=N)cc1` [Example 205] had a melting point of 175 to 177 °C. For the same molecule, the inhibition constant Ki in data set [1] was in the range of 1000 to 10000 nM.
The corresponding values for `N=c1c2ccsc2nc2n1CCC2=Cc1ccccc1Br` [Example 301, 7-(2-Bromobenzylidene)-6,7-dihydro-5H-1-thia-4a,8-diazo-s-indacen-4-ylideneamine] are 183 to 184 °C and 1 to 100 nM.
Turning to `CCc1ccccc1C=C1CCN2Cc3ccccc3N=C12` (as salt: hydrochloride) [Example 127, 3-(2-Ethylbenzylidene)-1,2,3,9-tetrahydro-pyrrolo[2,1-b]quinazoline], the melting point fell in the range of 224 to 225 °C.
In turn, `N=c1c2cccnc2nc2n1CC/C2=C\c1ccccc1Br` [Example 208] registered a melting point of 232 °C. In addition, in data set [1], the Ki lay in the range of 100 to 1000 nM.
The molecule `CCOc1ccccc1/C=C1\CCN2Cc3ccccc3N=C12` [Example 113] displayed a melting point of 157 to 158 °C. The Ki in data set [1] is 1000 to 10000 nM.
In turn, `C(=C1/CCN2Cc3ccccc3N=C12)/c1cccs1` [Example 114] displayed a melting point of 208 to 210 °C. Also, the inhibition constant (Ki) in data set [1] is 1000 to 10000 nM.
The like results for `C(=C1CCN2Cc3ccccc3N=C12)c1ccco1` [Example 115] were, in that order, 170 °C and 1000 to 10000 nM.
Molecule `N=c1c2c(C3CC3)csc2nc2n1CC/C2=C\c1ccccc1Br` [Example 305] displayed a melting point of 209 °C. In addition, the inhibition constant (Ki) in data set [1] lay in the range of 100 to 1000 nM.
Regarding `FC(F)(F)Oc1ccccc1C=C1CCN2Cc3ccccc3N=C12` [Example 122], in data set [1], the Ki lay within 1000 to 10000 nM.
On the same count and under the same terms, the figure for `CN(C)c1ccc(/C=C2\CCN3Cc4ccccc4N=C23)c(Cl)c1` [Example 107] is 1000 to 10000 nM.
As to `Clc1ccc(/C=C2\CCN3Cc4ccccc4N=C23)cc1Cl` [Example 112], the melting point is 200 °C. Further, the Ki in data set [1] fell in the range of 100 to 1000 nM.
With `Fc1ccccc1/C=C1\CCN2Cc3ccccc3N=C12` (as salt: HCl) [Example 106], the melting point came to 285 °C.
With `Clc1ccccc1C=C1CCCN2Cc3ccccc3N=C12` [Example 126, 6-(2-Chlorobenzylidene)-6,8,9,11-tetrahydro-7H-pyrido[2,1-b]quinazoline], the melting point was in the range of 242 to 248 °C. For the same molecule, in data set [1], the inhibition constant Ki is 1000 to 10000 nM.
Take `N=c1c2ccccc2nc2n1CCC2=Cc1ccccc1Br` [Example 201, 3-(2-Bromobenzylidene)-9-imino-2,3-dihydro-1H-pyrrolo[2,1-b]quinazoline]: the inhibition constant Ki in data set [1] is 1 to 100 nM.
